Source: PubChem BioAssay (NCI)
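Following 48 hours of exposure in 96-well plates, responses at five concentrations were used to interpolate endpoints linearly. Definition used: TGI = concentration required for complete inhibition of growth.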

How the values were obtained:
Experiment in all cases: NCI-60 cell line screen, 48 h
[1] = tested on: NCI-H522 lung
[2] = tested on: MOLT-4 leukemia
[3] = tested on: HOP-62 NSCLC
[4] = tested on: K-562 leukemia
[5] = tested on: SNB-75 CNS
[6] = tested on: LOX IMVI melanoma
[7] = tested on: MCF7 breast
[8] = tested on: UACC-257 melanoma
[9] = tested on: SK-MEL-28 melanoma
[10] = tested on: EKVX NSCLC

Structure (SMILES)	TGI [1] [µM]	TGI [2] [µM]	TGI [3] [µM]	TGI [4] [µM]	TGI [5] [µM]	TGI [6] [µM]	TGI [7] [µM]	TGI [8] [µM]	TGI [9] [µM]	TGI [10] [µM]
CN1Cc2cc(O)c(O)cc2C(O)C1 (configuration not stated)	> 100	> 100	> 100	> 100	> 100	> 100	> 100	> 100	> 100	> 100
CC(C(=O)c1ccncc1)c1ccccn1 (configuration not stated)	> 100	–	> 100	> 100	–	> 100	> 100	> 100	> 100	> 100
COC(=O)C(Cc1ccc(N(C)C)cc1)(NC(=O)c1ccccc1)P(=O)(OC)OC (configuration not stated)	> 100	> 100	> 100	> 100	> 100	> 100	–	> 100	> 100	> 100
S=c1nc(N/N=C/c2cccs2)c2cn[nH]c2[nH]1	76.8	66	69	> 100	> 100	74.6	28.3	> 100	> 100	> 100
COc1ccc(NC(C(N)=O)c2cc3cc(Br)ccc3nc2Cl)cc1 (configuration not stated)	> 100	62.9	> 100	> 100	> 100	> 100	> 100	> 100	> 100	> 100
COC1=C(C)C(=O)C2=C(C1=O)C1C3CC4=C(C(=O)C(OC)=C(C)C4=O)C(CNC(=O)C(C)O)N3C(C#N)C(C2)N1C (configuration not stated)	< 0.01	< 0.215	< 0.0282	1.48	0.0171	0.0263	2.25	0.0102	< 0.0217	0.108
C=CC(C)C1(CCCOCc2ccccc2)C(=S)N2CCC3(CC24CCCC14)OCCO3 (configuration not stated)	64.4	> 100	–	> 100	5.82	> 100	–	> 100	> 100	> 100
COC1=CC(=O)C=C(OC)C1=O	34.4	3.59	54.3	18	55.9	13.1	42.7	34.4	46.5	13
COC(=O)CNC(=O)CCC(C)[C@H]1CCC2C3C(C[C@H](OC(C)=O)[C@@]21C)[C@@]1(C)CCC2(C[C@H]1C[C@H]3OC(C)=O)OOC1(CC[C@]3(C)C4C[C@H](OC(C)=O)[C@@]5(C)C(CC[C@@H]5C(C)CCC(=O)NCC(=O)OC)C4[C@H](OC(C)=O)C[C@@H]3C1)OO2 (some centres not stated)	3.19	–	1.52	4.63	5.17	–	> 50	2.74	9.52	1.78
COC(=O)[C@]1(c2ccc(N(C)C)cc2OC)C[C@@H]2CCCN(CCc3c1[nH]c1ccccc31)C2	21.8	> 91.4	> 84.9	37.7	22.3	> 62.3	30.7	39.6	35.1	52
COc1cc2c(cc1Oc1c(Oc3c(O)c(OC)cc4c3C(CC(C)C)N(C)CC4)c(OC)cc3c1C(CC(C)C)N(C)CC3)C(CC(C)C)N(C)CC2 (configuration not stated)	3.58	4.05	3.76	5.65	3.01	5.52	8.3	11.5	13.6	2.18
O=C(Nc1ccccc1Cl)c1ccc([N+](=O)[O-])cc1	> 100	> 100	> 100	> 100	47.5	> 100	–	> 100	> 100	> 100
